Assays:
PLC/PRF/5 cells = assay: Clonogenic assay, PLC/PRF/5; type: cell-based; settings: 6 h exposure, 10 days culture, 5-FU 200 μM, Sorafenib 20 μM, CuCl2 1 μM, disulfiram-PLGA 200 nM
Method: (§1) […] The cells were collected and sub-cultured in 6-well plates containing drug-free medium at a cell density of 10^3/well. After 10 days culture, the clonogenic cells were determined by counting the colonies containing at least 50 cells.
(§2) The treated cells were collected and sub-cultured in 6-well plates containing drug-free medium at a cell density of 500 cells/well for another 10 days.

Huh7 cells = assay: Clonogenic assay, Huh7; type: cell-based; settings: 6 h exposure, 10 days culture, 5-FU 200 μM, Sorafenib 20 μM, CuCl2 1 μM, disulfiram-PLGA 200 nM
Method: as §1, §2

[1] = type: in vitro ADME; settings: horse, 100 μg/ml
Method: The eppendoff tubes were collected and protein was precipitated by the addition of 300 μl of absolute methanol at different time intervals. The supernatant was then subjected to HPLC measurement.
The free disulfiram was rapidly degraded in the serum to undetectable levels within 30 seconds (FIG. 1E). In contrast, disulfiram commenced its release from PLGA nanoparticles at 2 min which was equivalent to 34.23±3.38% of the initial drug loading and peaked in 4 min at 51.27±5.98% of the initial drug loading. The controlled release lasted for at least 24 hours. […] Importantly, after 4 hours incubation, the disulfiram concentration in the serum still remained at ˜90 μM which is markedly higher than the IC50s of disulfiram in a wide range of cancer types (˜50-500 nM).

[2] = system: a wide range of cancer types; settings: read-out: IC50s of disulfiram; cited from earlier work
[3] = cited from earlier work
PLC/PRF/5 xenografts = assay: Liver cancer xenograft experiments; type: in vivo, BALB/c Nu/Nu athymic nude mice; settings: copper alone (CuGlu 6 mg/kg p.o.)
Method: PLC/PRF/5 cells (5×10^5) were subcutaneously injected at one front flank of the mice. When the tumor volume reached ˜200 mm^3, the tumor bearing mice were randomly subdivided into 6 groups (8 mice/group) e.g. control, CuGlu 6 mg/kg p.o., empty nanoparticles+CuGlu 6 mg/kg p.o., PLGA-disulfiram 2.5 mg/kg i.v.+CuGlu 6 mg/kg p.o., PLGA-disulfiram 5 mg/kg i.v.+CuGlu 6 mg/kg p.o., PLGA-disulfiram 10 mg/kg i.v.+CuGlu 6 mg/kg p.o. The drugs were administered 3 times/week for successive 3 weeks.
Five-week-old female BALB/c Nu/Nu athymic nude mice (Biotechology & Cell Biology Shanghai, China) were housed under pathogen-free conditions. PLC/PRF/5 cells (5×10^5) were subcutaneously injected at one front flank of the mice. When the tumour volume (V) reached ˜200 mm^3, the tumour bearing mice were randomly subdivided into 6 groups (8 mice/group) and treated 3 times/week e.g. control; copper gluconate (CuGlu) 6 mg/kg p.o., empty nanoparticles+CuGlu 6 mg/kg p.o., PLGA-disulfiram 2.5 mg/kg i.v.+CuGlu 6 mg/kg p.o.; PLGA-disulfiram 5 mg/kg i.v.+CuGlu 6 mg/kg p.o., PLGA-disulfiram 10 mg/kg i.v.+CuGlu 6 mg/kg p.o. The tumour volume was calculated by the following formula: V=(L×W^2)×0.5, where L is the length and W is the width of the tumour. The xenograft size was observed and recorded trice per week for 3 weeks. The animals were sacrificed after three weeks. […]

PLC/PRF/5 HCC cell line = assay: MTT cytotoxicity assay and CI-isobologram, PLC/PRF/5; type: cell-based; settings: for IC50: Homo sapiens, PLC/PRF/5, 72 h, single drug; for combinational effect with Disulfiram-PLGA (CI-isobologram): PLC/PRF/5, Cu 1 μM; for sensitivity of cells at hypoxic condition: PLC/PRF/5, hypoxic versus normoxic culture, 72 h
Method: (§3) The PLC/PRF/5 and Huh7 HCC cell lines were cultured in DMEM (Lonza, Wokingham, UK) supplemented with 10% FCS, 50 units/ml penicillin, 50 μg/ml streptomycin.
(§4) The IC50s from single and two-drug-treated cells were detected. […] The combination index (CI) was determined by mutually exclusive equations.

Huh7 HCC cell line = assay: MTT cytotoxicity assay and CI-isobologram, Huh7; type: cell-based; settings: for IC50: Homo sapiens, Huh-7, Huh7, 72 h, single drug; for combinational effect with Disulfiram-PLGA (CI-isobologram): Huh7, Cu 1 μM; for sensitivity of cells at hypoxic condition: Huh7, hypoxic versus normoxic culture, 72 h
Method: as §3, §4

| time to degradation to undetectable levels in serum [1] [s] | Molecule | colony numbers versus control (PLC/PRF/5 cells) | colony numbers versus control (Huh7 cells) | IC50 [2] [µM] | previously published half-life data [3] [min] | effect on tumor growth (PLC/PRF/5 xenografts) | IC50 (PLC/PRF/5 HCC cell line) [µM] | combinational effect with Disulfiram-PLGA (CI-isobologram) (PLC/PRF/5 HCC cell line) | sensitivity of cells at hypoxic condition (PLC/PRF/5 HCC cell line) | IC50 (Huh7 HCC cell line) [µM] | combinational effect with Disulfiram-PLGA (CI-isobologram) (Huh7 HCC cell line) | sensitivity of cells at hypoxic condition (Huh7 HCC cell line) |
| --- | --- | --- | --- | --- | --- | --- | --- | --- | --- | --- | --- | --- |
|  | [Cl][Cu][Cl] [CuCl2, copper(II) chloride] | no significant difference | no significant difference |  |  |  |  |  |  |  |  |  |
| ≤ 30 | CCN(CC)C(=S)SSC(=S)N(CC)CC [free disulfiram, Disulfiram] |  |  | 0.05 to 0.5 | 4 |  |  |  |  |  |  |  |
|  | copper gluconate |  |  |  |  | no effect |  |  |  |  |  |  |
|  | O=c1[nH]cc(F)c(=O)[nH]1 [5-FU, 5-fluorouracil] | no significant difference | no significant difference |  |  |  | 123 | very significant synergistic | significantly resistant | 103 | very significant synergistic | significantly resistant |
|  | CNC(=O)c1cc(Oc2ccc(NC(=O)Nc3ccc(Cl)c(C(F)(F)F)c3)cc2)ccn1 [Sorafenib] | no significant difference | no significant difference |  |  |  | 30.9 | very significant synergistic | significantly resistant | 22.9 | very significant synergistic | significantly resistant |

From US10695299B2, “Disulfiram formulation” (UNIVERSITY OF WOLVERHAMPTON, priority 2015, dated 2020)
